{"source": "paper PMC8587785", "about": "“A New Class of Uracil–DNA Glycosylase Inhibitors Active against Human and Vaccinia Virus Enzyme” (Molecules, 2021)", "key": {"hUNG [1]": {"biological_target": "T1, hUNG (Homo sapiens, UniProt P13051)", "T1 construct": "truncated catalytically active human uracil–DNA glycosylase (hUNG ΔN84); His6 (N); linker with thrombin cleavage site (pET-15b) (N); made in house; host or cells: E. coli BL21(DE3), pET-15b", "test": "Uracil–DNA glycosylase assay, biochemical screening against hUNG (cleavage of 32P-labeled ssDNA 20-mer with dU)", "conditions": "for hUNG inhibition, dose response: inhibitors at 10, 100 and 1000 μM; for IC50: conditions used for screening: 50 nM substrate, 20 pM enzyme, 10 min, 37 °C", "procedure": "As hUNG excises Ura from single- and double-stranded DNA with similar efficiency, we have used the cleavage of a 20-mer single-stranded DNA oligonucleotide containing a dU residue in position 8 (Section 4.1) to assay hUNG activity in the presence of inhibitors. Twenty-three identified compounds were tested at 10, 100, and 1000 μM (Figure 2a). […] However, even the best inhibitor, 4B, had IC50 between 100 and 1000 μM under the conditions used for screening.\nFigure 2 Biochemical screening of the inhibitors identified by molecular docking. (a) hUNG activity in the presence of the inhibitors at 10 μM (black bars), 100 μM (light gray bars), or 1000 μM (dark gray bars). The activity is normalized for that in the absence of the inhibitor. Means and SD of three independent experiments are shown; (b) Structures of the compounds 2D, 3A, 3B, 4B, 4E, 4F, and 4G.\nThe identified compounds were purchased from Vitas-M Laboratory (Vitas-M Laboratory, Ltd., Hong Kong, China). The reaction mixture (10 μL) included 25 mM sodium phosphate (pH 7.5), 1 mM dithiothreitol, 1 mM Na-EDTA, 50 nM ^32P-labeled substrate, 20 pM enzyme, and the inhibitors at 10, 100, and 1000 μM. The reaction was carried out for 10 min at 37 °C, terminated by adding NaOH to 100 mM and heating for 2 min at 95 °C, and neutralized by an equimolar amount of HCl. The mixture was supplemented with 5 μL of formamide dye (80% formamide, 20 mM Na-EDTA, 0.1% xylene cyanol, 0.1% bromophenol blue), and the reaction products were separated by gel electrophoresis in 20% polyacrylamide/7.2 M urea. The gels were visualized and quantified by phosphorimaging using the Typhoon FLA 9500 system (GE Healthcare, Chicago, IL, USA)."}, "[2]": {"biological_target": "T2, vaccinia virus UNG (vvUNG, D4 protein) (Vaccinia virus, UniProt P20536)", "T2 construct": "made in house", "assay_type": "biochemical", "conditions": "at 100 μM"}, "hUNG [3]": {"biological_target": "T1, hUNG", "test": "Inhibition mechanism determination, steady-state kinetics of substrate cleavage by hUNG", "assay_type": "biochemical", "conditions": "for θ rel (Akaike’s relative likelihood of the model): best model’s likelihood taken for 1; for Vmax: fit in the presence of the inhibitor; for mode of inhibition: fit to competitive, uncompetitive and mixed models", "procedure": "KM and Vmax parameters of the Michaelis–Menten scheme were determined at different inhibitor concentrations, and the results were analyzed by fitting to competitive, uncompetitive, and mixed inhibition models (Figure 3, Table 1). Akaike’s information criterion was used to compare the quality of fit under the models. […] The kinetic values reported for ssDNA cleavage by hUNG in the literature vary widely (0.22–13.8 μM for KM, 647–1060 min^−1 for kcat) yet generally agree with our data.\nThe reactions were performed as described above except that the substrate concentrations were 0.1, 0.3, 0.5, 0.7, 1, 3, 5, 7, and 10 μM, and the inhibitors concentrations were 0, 100, 300, 500, and 1000 μM. […] To determine the type of inhibition and calculate Ki, the data were fit to the competitive, uncompetitive, and mixed inhibition models using an R script."}, "HEK 293FT cells": {"test_system": "HEK 293FT cells", "test": "Cell toxicity assay (MTT)", "assay_type": "cell-based, human", "conditions": "for EC50: Homo sapiens, HEK293FT, 72 h, read-out: effective concentration (toxicity)", "text": "To assess the toxicity of UNG inhibitors for human cells, we have treated HEK293 cell line with the compounds 4B and 4F as the best inhibitors (Table 1). […] Since Ura preferentially accumulates in DNA from a dUTP pool, we have next tested the toxicity of these UNG inhibitors in the presence of MTX, which is an antimetabolite drug that inhibits dihydrofolate reductase, reduces the availability of tetrahydrofolate, and thus suppresses the conversion of […].\nFigure 4 Cytotoxicity of UNG inhibitors. (a) Survival of HEK 293FT cells in the presence of the UNG inhibitors 4B and 4F (0.8–500 μM); (b) survival of HEK 293FT cells in the presence of MTX alone (0.02–10 μM) or 100 μM 4B plus MTX (0.1–10 μM); (c) survival of HEK 293FT cells in the presence of the UNG inhibitors 4B and 4F (0.8–500 μM) plus 0.1 μM MTX. In Panel C, the survival in the presence of 0.1 μM MTX alone is taken for 100%. Mean ± s. e. m. is shown (n = 3).\nHuman embryonic kidney cells (HEK 293FT) were from Thermo Fisher Scientific (Waltham, MA, USA; Cat. #R70007). The laboratory stock was regularly checked for the absence of mycoplasma contamination by PCR. Cells were grown in T25 cm^2 flasks in the complete medium (Dulbecco’s modified Eagle’s medium supplemented with 10% fetal bovine serum, 1 mM sodium pyruvate, 2 mM L-glutamine, and 1% penicillin–streptomycin–amphotericin B) as adherent monolayer cultures. The cultures were maintained at 37 °C in humidified atmosphere with 5% CO2. Cytotoxicity was determined by the colorimetric MTT (3-(4,5-dimethyl-2-thiazolyl)-2,5-diphenyl-2H-tetrazolium bromide) assay. The cells were harvested by trypsinization, seeded in the complete medium (100 μL per well) into 96-well plates at the density of 1.4×10^4 cells per well, and incubated for 24 h to settle and resume proliferation. MTX was dissolved in 1 M NaOH to 22 mM. […] After 15 min at room temperature to solubilize the formed formazan, A570 and A620 were measured with a Multiskan EX microplate reader (Thermo Fisher Scientific, Waltham, MA, USA). […]"}, "947 human cell lines": {"test_system": "947 human cell lines", "conditions": "read-out: median EC50; cited from earlier work"}, "hUNG [4]": {"biological_target": "T1, hUNG", "conditions": "open (not DNA-bound) conformation; cited from earlier work"}, "E. coli UNG": {"test_system": "E. coli UNG", "conditions": "cited from earlier work"}, "[5]": {"conditions": "competitive model, read-out: Ki"}, "[6]": {"conditions": "uncompetitive model, read-out: Ki"}}, "note": "“Also recorded” adds a separate entry of the source. Read-outs that look alike come from different tables or passages of the source."}
{"smiles": "Cc1ccc(C=C2C(=O)NC(=O)NC2=O)o1", "note": "[2D]", "values": [{"measurement": "hUNG inhibition, dose response", "setting": "hUNG [1]", "result": "progressively lower substrate cleavage with the increasing inhibitor concentration"}, {"measurement": "suppression of vvUNG activity", "setting": "[2]", "result": "≈ 50%"}]}
{"smiles": "CN(C)c1ccc(C=C2C(=O)NC(=O)NC2=O)cc1", "note": "[3A]", "values": [{"measurement": "Ki", "setting": "hUNG [3]; Ki, competitive model", "result": "530 ± 270", "unit": "µM"}, {"measurement": "Ki", "setting": "hUNG [3]; Ki, uncompetitive model", "result": "1300 ± 500", "unit": "µM"}, {"measurement": "θ rel (Akaike’s relative likelihood of the model)", "setting": "hUNG [3]; competitive model", "result": 0.655}, {"measurement": "Vmax", "setting": "hUNG [3]; competitive model", "result": "0.029 ± 0.003", "unit": "µM/min"}, {"measurement": "mode of inhibition", "setting": "hUNG [3]", "result": "the uncompetitive model was marginally better"}, {"measurement": "θ rel (Akaike’s relative likelihood of the model)", "setting": "hUNG [3]; uncompetitive model", "result": "best model"}, {"measurement": "Vmax", "setting": "hUNG [3]; uncompetitive model", "result": "0.034 ± 0.004", "unit": "µM/min"}, {"measurement": "hUNG inhibition, dose response", "setting": "hUNG [1]", "result": "progressively lower substrate cleavage with the increasing inhibitor concentration; also recorded: weak dose response"}, {"measurement": "suppression of vvUNG activity", "setting": "[2]", "result": "≈ 50%"}]}
{"smiles": "O=C1NC(=O)C(=Cc2ccco2)C(=O)N1", "note": "[3B]", "values": [{"measurement": "suppression of vvUNG activity", "setting": "[2]", "result": "≈ 50%"}]}
{"smiles": "COc1ccc(C=C2C(=O)NC(=O)NC2=O)c(OC)c1", "note": "[4B]", "values": [{"measurement": "θ rel (Akaike’s relative likelihood of the model)", "setting": "hUNG [3]; competitive model", "result": "best model"}, {"measurement": "Vmax", "setting": "hUNG [3]; competitive model", "result": "0.019 ± 0.001", "unit": "µM/min"}, {"measurement": "Ki", "setting": "hUNG [3]; [5]", "result": "140 ± 40", "unit": "µM"}, {"measurement": "mode of inhibition", "setting": "hUNG [3]", "result": "clearly better described by the competitive inhibition model"}, {"measurement": "θ rel (Akaike’s relative likelihood of the model)", "setting": "hUNG [3]; uncompetitive model", "result": "2.53 × 10^−5"}, {"measurement": "Vmax", "setting": "hUNG [3]; uncompetitive model", "result": "0.024 ± 0.003", "unit": "µM/min"}, {"measurement": "Ki", "setting": "hUNG [3]; [6]", "result": "550 ± 140", "unit": "µM"}, {"measurement": "IC50", "setting": "hUNG [1]", "result": "submillimolar range"}, {"measurement": "IC50", "setting": "hUNG [1]; read-out: IC50", "result": "100 to 1000", "unit": "µM"}, {"measurement": "hUNG inhibition, dose response", "setting": "hUNG [1]", "result": "progressively lower substrate cleavage with the increasing inhibitor concentration; also recorded: more pronounced dose response"}, {"measurement": "EC50", "setting": "HEK 293FT cells", "result": "69 ± 1", "unit": "µM"}, {"measurement": "suppression of vvUNG activity", "setting": "[2]", "result": "≈ 50%"}]}
{"smiles": "Cc1ccc(C#N)c(SCc2cc(=O)[nH]c(=O)[nH]2)n1", "note": "[4E]", "values": [{"measurement": "hUNG inhibition, dose response", "setting": "hUNG [1]", "result": "progressively lower substrate cleavage with the increasing inhibitor concentration"}]}
{"smiles": "COc1cc(C=C2C(=O)NC(=O)NC2=O)cc(Cl)c1OC", "note": "[4F]", "values": [{"measurement": "θ rel (Akaike’s relative likelihood of the model)", "setting": "hUNG [3]; competitive model", "result": 0.8}, {"measurement": "Vmax", "setting": "hUNG [3]; competitive model", "result": "0.053 ± 0.014", "unit": "µM/min"}, {"measurement": "Ki", "setting": "hUNG [3]; [5]", "result": "200 ± 130", "unit": "µM"}, {"measurement": "mode of inhibition", "setting": "hUNG [3]", "result": "the uncompetitive model was marginally better"}, {"measurement": "θ rel (Akaike’s relative likelihood of the model)", "setting": "hUNG [3]; uncompetitive model", "result": "best model"}, {"measurement": "Vmax", "setting": "hUNG [3]; uncompetitive model", "result": "0.075 ± 0.028", "unit": "µM/min"}, {"measurement": "Ki", "setting": "hUNG [3]; [6]", "result": "250 ± 140", "unit": "µM"}, {"measurement": "IC50", "setting": "hUNG [1]", "result": "submillimolar range"}, {"measurement": "hUNG inhibition, dose response", "setting": "hUNG [1]", "result": "progressively lower substrate cleavage with the increasing inhibitor concentration; also recorded: more pronounced dose response"}, {"measurement": "EC50", "setting": "HEK 293FT cells", "result": "77 ± 1", "unit": "µM"}]}
{"smiles": "CC(Oc1ccc(C=C2C(=O)NC(=O)NC2=O)cc1)C(=O)O", "note": "(centres unmarked) [4G]", "values": [{"measurement": "Ki", "setting": "hUNG [3]; Ki, competitive model", "result": "3300 ± 2300", "unit": "µM"}, {"measurement": "Ki", "setting": "hUNG [3]; Ki, uncompetitive model", "result": "> 10000", "unit": "µM"}, {"measurement": "θ rel (Akaike’s relative likelihood of the model)", "setting": "hUNG [3]; competitive model", "result": "best model"}, {"measurement": "Vmax", "setting": "hUNG [3]; competitive model", "result": "0.042 ± 0.002", "unit": "µM/min"}, {"measurement": "mode of inhibition", "setting": "hUNG [3]", "result": "clearly better described by the competitive inhibition model"}, {"measurement": "θ rel (Akaike’s relative likelihood of the model)", "setting": "hUNG [3]; uncompetitive model", "result": 0.312}, {"measurement": "Vmax", "setting": "hUNG [3]; uncompetitive model", "result": "0.043 ± 0.003", "unit": "µM/min"}, {"measurement": "hUNG inhibition, dose response", "setting": "hUNG [1]", "result": "progressively lower substrate cleavage with the increasing inhibitor concentration; also recorded: more pronounced dose response"}]}
{"smiles": "CN(Cc1cnc2nc(N)nc(N)c2n1)c1ccc(C(=O)N[C@@H](CCC(=O)O)C(=O)O)cc1", "note": "[MTX, methotrexate, reference compound]", "values": [{"measurement": "EC50", "setting": "947 human cell lines", "result": 0.595, "unit": "µM"}, {"measurement": "reduction in the cell viability", "setting": "HEK 293FT cells; 0.1 μM MTX without the inhibitors", "result": "20–25%"}]}
{"smiles": "O=C(O)C1=CC(=C(c2ccc(O)c(C(=O)O)c2)c2ccc(O)c(C(=O)O)c2)C=CC1=O", "note": "[aurintricarboxylic acid]", "values": [{"measurement": "affinity", "setting": "hUNG [4]", "result": "submicromolar affinity"}]}
{"smiles": "CNC(C)C1CCC(N)C(OC2C(N)CC(N)C(OC3OCC(C)(O)C(NC)C3O)C2O)O1", "note": "(centres unmarked) [gentamicin]", "values": [{"measurement": "IC50", "setting": "E. coli UNG", "result": "~1000", "unit": "µM"}]}
